Here are results for eight compounds from ChEMBL document CHEMBL1128336, “Synthetic routes to 4-amino-3-carboxy-beta-carboline derivatives: incidental formation of novel furo[3,4-c]-beta-carbolin-2-ones displaying high affinities for the benzodiazepine receptor” (J Med Chem, 1995).

Usually IC50 stands for the concentration needed to halve the response being measured.

This experiment addresses GABA-A receptor; anion channel. Put plainly: In vitro displacement of [3H]flunitrazepam from GABA-A central benzodiazepine receptor of rat cerebral cortex membranes. It is filed as cell membranes, Membrane. On the technique in general: In a radioligand displacement assay an active substance lowers the binding of a labelled ligand.
Compound `CCOC(=O)CN1C(=O)c2[nH]cc3nc4ccccc4c-3c2C1O` (stereo not drawn) displayed an IC50 of 70 nM.

In turn, `COC1OC(=O)c2[nH]cc3nc4ccccc4c-3c21` (stereo not drawn) came in with an IC50 of 12 nM. This IC50 lies about 5.8-fold lower than the previous one.

The compound `O=C1OC(=O)c2c1[nH]cc1nc3ccccc3c2-1` yielded an IC50 of 150 nM.

In the case of `O=C1OC(CO)c2c1[nH]cc1nc3ccccc3c2-1` (stereo not drawn), the IC50 was 0.2 nM.

Regarding `CCOC1OC(=O)c2[nH]cc3nc4ccccc4c-3c21` (stereo not drawn), the 50% inhibitory concentration (IC50) was determined as 20 nM.

With `COC(=O)c1cc2c(cn1)[nH]c1ccccc12` [BETA-CCM], the IC50 stood at 2 nM. This IC50 is about 10-fold lower than that of the compound before.

`CC1OC(=O)c2[nH]cc3nc4ccccc4c-3c21` (stereo not drawn) showed an IC50 of 20 nM.

`O=C1OC(O)c2c1[nH]cc1nc3ccccc3c2-1` (stereo not drawn) registered an IC50 of 47 nM.
